Data reported in patent US7041701B2, “Triterpenoid derivatives” (Univerzita Palackeho V Olomouci, priority 2000, dated 2006).

What was measured:
[1] = tested on: K562 human promyelocytic leukemia; assay: MTT cytotoxicity assay, K562; type: cell-based; details: 72 hours, read-out: TCS50
Excerpt: (§1) One of the parameters used as the basis for colorimetric assays is the metabolic activity of viable cells. For example, a microtiter assay which uses the tetrazolium salt MTT is now widely used to quantitate cell proliferation and cytotoxicity [Hajdúch M, Mihál V, Minarík J, Fáber E, Safárová M, Weigl E, Antálek P.: Cytotechnology, 1996, 19, 243–245]. For instance, this assay is used in drug screening programs and in chemosensitivity testing. Because tetrazolium salts are cleaved only by metabolically active cells, these assays exclusively detect viable cells. In the case of the MTT assay, yellow soluble tetrazolium salt is reduced to a coloured water-insoluble formazan salt. After it is solubilized, the formazan formed can easily and rapidly be quantified in a conventional ELISA plate reader at 570 nm (maximum absorbancy). The quantity of reduced formazan corresponds to the number of vital cells in the culture. […]
(§2) The cell suspensions that were prepared and diluted according to the particular cell type and the expected target cell density (2,500–30,000 cells per well based on cell growth characteristics) were added by pipette (80 μl) into 96/well microtiter plates. […] Usually, test compounds were evaluated at six 4-fold dilutions. […] The tumour cell survival (TCS) was calculated using the following equitation: TCS=(ODdrug exposed well/mean ODcontrol wells)×100%. […]

[2] = tested on: Caco-2 human colon cancer; assay: MTT cytotoxicity assay, Caco-2; type: cell-based; details: 72 hours, read-out: TCS50
Excerpt: as §1, §2

[3] = tested on: CEM-DNR bulk human T-lymphoblastic leukemia, daunorubicin resistant; assay: MTT cytotoxicity assay, CEM-DNR bulk; type: cell-based; details: 72 hours, read-out: TCS50
Excerpt: as §1, §2

U87MG human glioblastoma = assay: MTT cytotoxicity assay, U87MG; type: cell-based; details: 72 hours, read-out: TCS50
Excerpt: as §1, §2

[4] = tested on: NIH3T3 mouse immortalised fibroblasts; assay: MTT cytotoxicity assay, NIH3T3; type: cell-based; details: 72 hours, read-out: TCS50
Excerpt: as §1, §2

A549 lung cancer cells = assay: Apoptosis morphology by scanning electron microscopy; type: cell-based, human; details: A549, 2 μM, 12 hours, scanning electron microscopy (FIG. 1)
Excerpt: To analyse the mechanisms of betulinine-induced cytotoxicity, it is important to distinguish apoptosis from the other major form of cell death, necrosis. Finally, at the tissue level, apoptosis produces little or no inflammation, since shrunken portions of the cell are engulfed by the neighbouring cells, especially macrophages, rather than being released into the extracellular fluid. In contrast, in necrosis, cellular contents are released into the extracellular fluid, and thus have an irritant affect on the nearby cells, causing inflammation. […] Thirdly, at the molecular level, a number of biochemical processes play an important role in the induction of apoptosis. However, the majority of them are not well understood, and they result in activation of proteases and nucleases, which finally destruct key biological macromolecules—proteins and DNA. For the detection of apoptotic versus necrotic modes of cell death, the morphology was assessed by scanning electron microscopy.
A549 cell line was cultured on tissue culture treated glass coverslips in 6-well culture plates with or without 2 μM concentration of I.3 or betulinic acid at 37° C. and 5% CO2 for 12 hours. Following incubation, the coverslips were washed in Hank's buffered salt solution and processed as described below.
Cells were fixed in 2% glutaraldehyde/PBS overnight at 4° C., dried and covered with gold under vacuum. […]

[5] = tested on: OVCAR-3 human ovarian cancer; assay: MTT cytotoxicity assay, OVCAR-3; type: cell-based; details: 72 hours, read-out: TCS50
Excerpt: as §1, §2

[6] = tested on: Saos2 human, p53−/−, Rb−/−; assay: MTT cytotoxicity assay, Saos2; type: cell-based; details: 72 hours, read-out: TCS50
Excerpt: as §1, §2

H3 histone (Lys9) = assay: Histone acetylation, Western blot in CEM cells; type: cell-based, human
Protocol: CEM cells were cultured in Dulbeco's modified essential medium with 4.5 g dextrose/l, 10% of foetal calf serum, 2 mM glutamine, 100 U/ml penicillin and 100 μg/ml streptomycin with/without the indicated concentrations of HDAC inhibitor TSA or I.3. At selected time points, cells were harvested, washed in ice cold Hank's balanced salt solution and solubilized on ice using SDS-PAGE sample buffer containing protease and phosphatase inhibitors (10 μg/ml of leupeptin, 10 μg/ml of aprotinin, 10 μg/ml of soybean trypsin inhibitor, 100 μmol of benzamide, 1 mM of sodium vanadate, 1 mM of NaF, 1 mM of phenylphosphate) and boiled immediately.
Total cellular proteins (100 μg/well) were separated on SDS-PAGE electrophoresis, blotted on polyvinyldifluoride membranes and acetylated histone was detected using a anti-acetyl(Lys9)-histone H3 rabbit polyclonal antibody (Cell Signalling Technology, Beverly, Mass.; Cat# 9671L) and visualized by chemilumniuscence (ECL-Western Blotting System, Amersham). Details of the Western blot technique are described in Ausubel, F. M., Brent, R, Kingston, R. E., Moore, D. D., Seidman, J. G., Smith, J. A., Struhl, K. (Eds): Short Protocols in Molecular. Biology, 2nd edition, John Wiley & Sons, New York, Chichester, Brisbane, Toronto, Singapore, 1992, page 10–33–10–35.

human normal lymphocytes = assay: MTT cytotoxicity assay, normal lymphocytes; type: cell-based; details: 72 hours, read-out: TCS50
Excerpt: as §1, §2

[7] = tested on: CEM-VCR 1/F3 human T-lymphoblastic leukemia, vincristin resistant; assay: MTT cytotoxicity assay, CEM-VCR 1/F3; type: cell-based; details: 72 hours, read-out: TCS50
Excerpt: as §1, §2

[8] = tested on: CEM-VCR 3/D5 human T-lymphoblastic leukemia, vincristin resistant; assay: MTT cytotoxicity assay, CEM-VCR 3/D5; type: cell-based; details: 72 hours, read-out: TCS50
Excerpt: as §1, §2

[9] = tested on: B16F mouse melanoma, metastatic; assay: MTT cytotoxicity assay, B16F; type: cell-based; details: 72 hours, read-out: TCS50
Excerpt: as §1, §2

With CC(=O)OC[C@@]1(C(=O)O)CC[C@]2(C)[C@H](CC[C@@H]3[C@@]4(C)CC[C@H](OC(C)=O)C(C)(C)[C@@H]4CC[C@]32C)C1=O [I.3, 3β,28-diacetoxy-18-oxo-19,20,21,29,30-pentanorlupan-22-oic acid] the IC50 [1] was 0.2 µM, the IC50 [2] was 3 µM and the IC50 [3] was 1.1 µM. For the same molecule, the IC50 (U87MG human glioblastoma) was 5.1 µM, the IC50 [4] was 7.2 µM and the “morphologic markers of apoptosis” value (A549 lung cancer cells) was “cytoplasmatic blebbing, cellular fragmentation and formation of apoptotic bodies”. For the same molecule, the IC50 [5] was 1 µM, the IC50 [6] was 1.8 µM and the “time points showing histone acetylation” value (H3 histone (Lys9); 2 μM (IC50)) was 45 to 120 min. For the same molecule, the “time to appearance of acetylated histone” value (H3 histone (Lys9); 20 μM (10×IC50)) was 30 min, the “acetylation of H3 histone in Lys9 position” value (H3 histone (Lys9); Western blot (FIG. 5)) was “rapidly acetylated” and the IC50 (human normal lymphocytes) was 13 µM. The IC50 [7] was 3.3 µM, the IC50 [8] was 2.9 µM and the IC50 [9] was 4.7 µM.
